Paper PMC9503518, “Antibacterial and Antifungal Properties of a Novel Antimicrobial Peptide GK-19 and Its Application in Skin and Soft Tissue Infections Induced by MRSA or Candida albicans” (Pharmaceutics, 2022)
Where no end group is shown, it is not given here.

Legend:
[1] = Peptide stability in water by HPLC; assay type: physicochemical; conditions: 10 mg/mL in water, 37 °C, 200 rpm, 0 and 48 h, HPLC 220 nm, repeated three times
Protocol: Antimicrobial peptides were dissolved in water or rat serum with a concentration of 10 mg/mL. The solution was incubated at 37 °C, 200 rpm for different time periods, and diluted 50 times for the HPLC analysis. In water, the incubation time was 0 h and 48 h. In rat serum, the incubation time was 0, 2, 4, 7, 12, 24 or 48 h. Each incubation condition was repeated three times. HPLC was conducted on a Waters HPLC system, which consisted of a 2996 photodiode array detector, a 2695 separation module and a temperature control column oven. Column: Sinochrom ODS-BP, 5 μm, 4.6 × 250 mm (Dalian Elite Analytical Instruments Co., Ltd., Dalian, China). Mobile phase: A: 100% ACN + 0.1% TFA; B: 100% Water + 0.1% TFA. Gradient elution: 0–20 min, 95% B–100% A; 20–25 min, 100% A. Detection wavelength: 220 nm. Flow rate: 1 mL/min. Sample volume: 50 μL (0.2 mg/mL).

[2] = tested on: Human embryonic kidney cells (293)
Protocol: (§1) Rat pulmonary artery smooth muscle cells (RPASMCs, primary cells separated by our laboratory) and human keratinocytes cells (HaCaT cells, Mingjing Biology, Shanghai, China) were cultured in high-glucose Dulbecco’s Modified Eagle Medium (DMEM), supplemented with 10% fetal bovine serum (FBS). Human umbilical vein endothelial cells (HUVECs, BeNa Culture Collection, Kunshan City, China) were cultured in the MCDB131 medium supplemented with 20% FBS and growth factor additives. Human embryonic kidney cells (293, Procell Life Science & Technology Co., Ltd., Wuhan, China) were cultured in minimum Eagle’s medium (MEM) supplemented with 10% FBS. All cells were cultured at 37 °C, with 5% CO2. All animals used in this study were supplied by the Medical Animal Test Center of Xi’an Jiaotong University and study protocols were approved by the Institutional Animal Care and Use Committee of the Ethics Committee of Health Science Center, Xi’an Jiaotong University (Ethical approval code: 2017-609).
(§2) Cells were inoculated in 96-well plates at 5 × 10^3 cells/well and cultured at 37 °C under 5% CO2. The supernatant was removed, and the cells were washed three times with PBS. Next, 100 μL of fresh culture medium containing different antimicrobial peptides was added (peptide concentration: 0, 1.0, 2.0, 5.0, 10, 25, 50 and 100 μM). Each concentration was repeated five times. Then, 10 μL of CCK-8 reagent was added 48 h later, followed by another two hours of incubation. The absorbance at 450 nm was measured using the same Multilabel Reader. Cellular growth viability was calculated using the following equation:Viability (%) = (mean absorbance value of treatment group − mean absorbance value of blank group group)/(mean absorbance value of control group − mean absorbance value of blank group) × 100. (2)

[3] = tested on: Human umbilical vein endothelial cells (HUVECs)
Protocol: as §1, §2

[4] = tested on: Rat pulmonary artery smooth muscle cells (RPASMCs)
Protocol: as §1, §2

[5] = tested on: human keratinocytes cells (HaCaT cells)
Protocol: as §1, §2

[6] = tested on: C. albicans; conditions: mouse, in vivo, 2 h, 50 μM
Protocol: (§3) The scalded mice models combined with SSTIs by MRSA or C. albicans were constructed. Fifty normal male Kunming mice (5–6 weeks old) weighing ~25 g were anesthetized by isoflurane using a small animal anesthesia machine (R640, RWD Life Science, China). After skin preparation and disinfection, a custom-made circular iron (diameter: 8 mm) (shown in Figure S4) was applied to both sides of the spine of the mice for 10 s at 300 °C, resulting in four scalded wounds. Mice were injected subcutaneously with 5 mg/kg meloxicam (Aladdin, Shanghai, China) for four days (once per day) after scalding for pain relief. Two days after scalding, the skin tissues of the scalded areas were removed carefully, and about 30 μL of 1 × 10^7 CFU/mL of MRSA or C. albicans was applied evenly onto the surfaces of the wounds. The mice were returned to the original feeding environment after the microbial fluid was completely absorbed (1.5–2 h), with two mice per cage. Corncob granules with SPF level were used as padding.
(§4) Two days after microbe inoculating, the scalded wounds of each mouse were divided into four groups randomly. […] The mice were returned to the original feeding environment after the solutions were completely absorbed. The treatment lasted for 12–16 days. Photographs of the wound areas were taken every two days using an iPhone 11 and the wound areas were measured every two days using Image J software (152-win-java8, Bethesda, MD, USA). The average wound areas on day two were used as the reference (100% unhealed) to normalized wound areas. Skin tissues of the wound areas were removed carefully at different time points (n = 5 for each time point) and weighted in a sterile environment. For MRSA infection, 10 mg of the wound tissues was dispersed into 1000 μL of sterile saline solution and the tissue solution was ground into suspension in a tissuelyser (Tissuelyser LT, Servicebio). Then, the tissue suspension was diluted with sterile saline solution 10 times and plated on MHA with a sample volume of 50 μL. For C. albicans infection, 10 mg of the wound tissues was dispersed into 200 μL of sterile saline solution and the tissue solution was also ground into suspension in the tissuelyser. The tissue suspension was then plated on PDA directly with a sample volume of 20 μL. After culturing overnight, the colonies were counted using Image J software or human eyes. In addition, the skin tissues of the wound area were removed carefully at different time points and dispersed into a 4% paraformaldehyde solution for further use.
(§5) The hematoxylin and eosin staining in this study was carried out by Servicebio (Wuhan, China). Briefly, the obtained skin tissues were soaked in 4% paraformaldehyde solution (Beyotime, China) and fixed for more than 24 h. Then, they were dehydrated and embedded with paraffin, and tissue sections having thicknesses of 4 μm were prepared. After deparaffinization and rehydration, hematoxylin and eosin staining was performed.

[7] = tested on: MRSA; conditions: mouse, in vivo, 2 h, 50 μM
Protocol: as §3, §4, §5

GFLFKLIPKAIKKLISKFK [GK-19]
time for which structural stability was retained in water [1]: ≥ 48 h | cytotoxicity at the effective antimicrobial concentration, 293 cells [2]: almost no apoptotic cells | cell viability, 293 cells ([2]; 100 µM): less than 20% | cytotoxicity at the effective antimicrobial concentration, HUVECs [3]: almost no apoptotic cells | cell viability, HUVECs ([3]; 100 µM): less than 20% | cytotoxicity at the effective antimicrobial concentration, RPASMCs [4]: almost no apoptotic cells | cell viability, RPASMCs ([4]; 100 µM): less than 20% | cytotoxicity at the effective antimicrobial concentration, HaCaT [5]: almost no apoptotic cells | cells surviving, HaCaT ([5]; 48 h, 100 μM): more than 42% | C. albicans suppressed (inhibition rate) at day eight compared with saline solution groups [6]: more than 97% | MRSA suppressed (inhibition rate) at day eight compared with saline solution groups [7]: more than 95%
